# From patent US20110086759A1, “CHEMICAL COMPOUNDS” (SYNGENTA CROP PROTECTION, INC., priority 2007, published 2011)
# Columns and labels:
# Type in all cases: in vivo
# [1] = system: Alopecurus myosuroides (ALOMY); test: Pre-emergence biological efficacy, glasshouse pot test; details: 312 h, pre-emergence, 1,000 g/ha, evaluated after 13 days (100=total damage; 0=no damage), read-out: Percentage damage ALOMY
# Outline: (§1)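 Seeds sown in standard soil in pots, held one day in glasshouse (24/16 °C day/night, 14 h light, 65% humidity), then sprayed with aqueous solution from acetone/water (50:50) formulation with 0.5% Tween 20 at 1000 or 250 g/ha. Damage scored after 13 days (0 = none, 100 = total).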
# [2] = system: Amaranthus retoflexus (AMARE); test: as above; details: Amaranthus retroflexus, 312 h; pre-emergence, 1,000 g/ha, evaluated after 13 days (100=total damage; 0=no damage); read-out: Percentage damage AMARE
# Outline: as §1
# [3] = system: Echinochloa crus-galli (ECHCG); test: as above; details: 312 h, pre-emergence, 1,000 g/ha, evaluated after 13 days (100=total damage; 0=no damage), read-out: Percentage damage ECHCG
# Outline: as §1
# [4] = system: Ipomea hederaceae (IPOHE); test: as above; details: Ipomoea hederacea, 312 h; pre-emergence, 1,000 g/ha, evaluated after 13 days (100=total damage; 0=no damage); read-out: Percentage damage IPOHE
# Outline: as §1
# Setaria faberi (SETFA) [5] = test: as above; details: 312 h, pre-emergence, 1,000 g/ha, evaluated after 13 days (100=total damage; 0=no damage), read-out: Percentage damage SETFA
# Outline: as §1
# Solanum nigrum (SOLNI) [6] = test: as above; details: 312 h, pre-emergence, 1,000 g/ha, evaluated after 13 days (100=total damage; 0=no damage), read-out: Percentage damage SOLNI
# Outline: as §1
# [7] = system: Alopecurus myosuroides (ALOMY); test: Post-emergence biological efficacy, glasshouse pot test; details: 312 h, post-emergence, 1,000 g/ha, evaluated after 13 days (100=total damage; 0=no damage), read-out: Percentage damage caused to weed species, ALOMY
# Outline: (§2)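 Plants were sown in standard soil and grown 8 days in a glasshouse (24/16° C. day/night, 14 hours light, 65% humidity), then sprayed post-emergence at 1000 or 250 g/ha from acetone/water (50:50) with 0.5% Tween 20. Damage was scored visually after 13 days (0 = none, 100 = total).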
# [8] = system: Amaranthus retoflexus (AMARE); test: as above; details: Amaranthus retroflexus, 312 h; post-emergence, 1,000 g/ha, evaluated after 13 days (100=total damage; 0=no damage); read-out: Percentage damage caused to weed species, AMARE
# Outline: as §2
# [9] = system: Echinochloa crus-galli (ECHCG); test: as above; details: 312 h, post-emergence, 1,000 g/ha, evaluated after 13 days (100=total damage; 0=no damage), read-out: Percentage damage caused to weed species, ECHCG
# Outline: as §2
# [10] = system: Ipomea hederaceae (IPOHE); test: as above; details: Ipomoea hederacea, 312 h; post-emergence, 1,000 g/ha, evaluated after 13 days (100=total damage; 0=no damage); read-out: Percentage damage caused to weed species, IPOHE
# Outline: as §2
# Setaria faberi (SETFA) [11] = test: as above; details: 312 h, post-emergence, 1,000 g/ha, evaluated after 13 days (100=total damage; 0=no damage), read-out: Percentage damage caused to weed species, SETFA
# Outline: as §2
# Solanum nigrum (SOLNI) [12] = test: as above; details: 312 h, post-emergence, 1,000 g/ha, evaluated after 13 days (100=total damage; 0=no damage), read-out: Percentage damage caused to weed species, SOLNI
# Outline: as §2
SMILES,pest or weed control at 1000 g/ha [1] [%],pest or weed control at 1000 g/ha [2] [%],pest or weed control at 1000 g/ha [3] [%],pest or weed control at 1000 g/ha [4] [%],pest or weed control at 1000 g/ha (Setaria faberi (SETFA) [5]) [%],pest or weed control at 1000 g/ha (Solanum nigrum (SOLNI) [6]) [%],pest or weed control at 1000 g/ha [7] [%],pest or weed control at 1000 g/ha [8] [%],pest or weed control at 1000 g/ha [9] [%],pest or weed control at 1000 g/ha [10] [%],pest or weed control at 1000 g/ha (Setaria faberi (SETFA) [11]) [%],pest or weed control at 1000 g/ha (Solanum nigrum (SOLNI) [12]) [%]
"COC(=O)c1nc(C2CC2)nc(NCc2ccc(C(F)(F)F)cc2)c1Cl [Compound 4-77, 5-Chloro-2-cyclopropyl-6-methoxycarbonyl-4-(4-trifluoromethyl-phenylmethyl-amino)pyrimidine]",0,50,30,40,0,40,20,100,90,100,90,100
"COC(=O)c1nc(C2CC2)nc(NCc2ccccc2OC)c1Cl [Compound 4-78, 5-Chloro-2-cyclopropyl-6-methoxycarbonyl-4-(2-methoxyphenyl-methylamino)-pyrimidine]",20,90,60,100,40,90,30,100,70,100,80,90
"COC(=O)c1nc(C2CC2)nc(NCc2ccc(OC)cc2)c1Cl [Compound 4-80, 5-Chloro-2-cyclopropyl-6-methoxycarbonyl-4-(4-methoxyphenyl-methylamino)-pyrimidine]",40,90,50,90,60,90,30,100,60,100,90,100
"CCCCOc1ccc(CNc2nc(C3CC3)nc(C(=O)OC)c2Cl)cc1 [Compound 4-82, 4-(4-^nButoxyphenyl-methylamino)-5-chloro-2-cyclo-propyl-6-methoxy-carbonylpyrimidine]",40,90,60,100,80,90,30,100,60,100,80,100
"COC(=O)c1nc(C2CC2)nc(NCc2ccc(OC(F)(F)F)cc2)c1Cl [Compound 4-83, 5-Chloro-2-cyclopropyl-6-methoxycarbonyl-4-(4-trifluoromethoxy-phenylmethyl-amino)pyrimidine]",0,60,0,50,10,40,20,100,60,100,90,100
"COC(=O)c1nc(C2CC2)nc(NCc2ccc(N)cc2)c1Cl [Compound 4-86, 4-(4-Aminophenyl-methylamino)-5-chloro-2-cyclopropyl-6-methoxycarbonyl-pyrimidine]",60,100,70,100,80,100,50,100,70,100,90,100
"COC(=O)c1nc(C2CC2)nc(NCc2ccc(N(C)C)cc2)c1Cl [Compound 4-87, 5-Chloro-2-cyclopropyl-4-(4-dimethylamino-phenylmethyl-amino)-6-methoxycarbonyl-pyrimidine]",90,100,90,100,90,100,60,100,60,100,100,100
"COC(=O)c1nc(C2CC2)nc(NCc2ccccc2N2CCOCC2)c1Cl [Compound 4-88, 5-Chloro-2-cyclopropyl-6-methoxycarbonyl-4-(2-morpholin-4-yl-phenylmethyl-amino)-pyrimidine]",40,70,50,100,20,70,50,100,60,80,60,80
"COC(=O)c1nc(C2CC2)nc(NCc2ccccc2[N+](=O)[O-])c1Cl [Compound 4-90, 5-Chloro-2-cyclopropyl-6-methoxycarbonyl-4-(2-nitrophenyl-methylamino)-pyrimidine]",50,100,60,100,80,100,50,100,80,100,100,100
"COC(=O)c1nc(C2CC2)nc(NCc2cccc([N+](=O)[O-])c2)c1Cl [Compound 4-91, 5-Chloro-2-cyclopropyl-6-methoxycarbonyl-4-(3-nitrophenyl-methylamino)-pyrimidine]",10,50,20,60,20,50,50,100,80,100,90,100
"COC(=O)c1nc(C2CC2)nc(NCc2ccc(S(N)(=O)=O)cc2)c1Cl [Compound 4-93, 4-(4-Aminosulphonyl-phenyl)methylamino-5-chloro-2-cyclopropyl-6-methoxycarbonyl-pyrimidine]",0,30,0,40,0,0,0,30,0,70,0,50
